#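 These data come from cells grown in 96-well plates and exposed to compound for 48 hours at five concentrations. GI50 = concentration required for 50% inhibition of growth.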 Active and inactive are the calls of the source. Cut-off read from the data, not from the text of the source: active = GI50 up to about 1.1 µM and inactive = higher.
# What was measured:
# Assay in all cases: NCI anticancer screen, dose series, 48 h
# [1] = test system: SK-OV-3
# [2] = test system: M14
# [3] = test system: LOX IMVI
# [4] = test system: 786-0
# [5] = test system: HT-29
# [6] = test system: SK-MEL-5
# [7] = test system: DU-145
# [8] = test system: RPMI-8226
# [9] = test system: SW-620
# [10] = test system: ACHN
# [11] = test system: OVCAR-5
# [12] = test system: OVCAR-8
# [13] = test system: NCI-H460
# [14] = test system: RXF 393
# [15] = test system: SK-MEL-28
# [16] = test system: TK-10
# [17] = test system: HOP-62
# [18] = test system: CCRF-CEM
# [19] = test system: HOP-92
Compound,GI50 [1],GI50 [2],GI50 [3],GI50 [4],GI50 [5],GI50 [6],GI50 [7],GI50 [8],GI50 [9],GI50 [10],GI50 [11],GI50 [12],GI50 [13],GI50 [14],GI50 [15],GI50 [16],GI50 [17],GI50 [18],GI50 [19]
C/C(=C\CSCC(N)C(=O)O)CC/C=C(\C)CNc1ccccc1 (centres undefined),> 100 µM (inactive),> 100 µM (inactive),> 100 µM (inactive),> 100 µM (inactive),> 100 µM (inactive),75.2 µM (inactive),> 100 µM (inactive),0.421 µM (active),> 100 µM (inactive),> 100 µM (inactive),> 100 µM (inactive),> 100 µM (inactive),> 100 µM (inactive),> 100 µM (inactive),> 100 µM (inactive),> 100 µM (inactive),> 100 µM (inactive),,
C1=NN2C(c3ccccc3)=NOC2C2C(c3ccccc3)=NOC12 (centres undefined),> 100 µM (inactive),> 100 µM (inactive),> 100 µM (inactive),> 100 µM (inactive),,58.7 µM (inactive),> 100 µM (inactive),,,98.6 µM (inactive),> 100 µM (inactive),> 100 µM (inactive),> 100 µM (inactive),> 100 µM (inactive),,> 100 µM (inactive),> 100 µM (inactive),,
FC(F)(F)c1cccc(COCCN2CCN(Cc3cccc(C(F)(F)F)c3)CC2)c1,17.3 µM (inactive),30.1 µM (inactive),,15.3 µM (inactive),21.7 µM (inactive),15.8 µM (inactive),17 µM (inactive),,13.1 µM (inactive),15.7 µM (inactive),16.7 µM (inactive),18.7 µM (inactive),16.3 µM (inactive),,17.8 µM (inactive),13.7 µM (inactive),20 µM (inactive),14.1 µM (inactive),
Cc1ccc(C)c2c1CCc1cc3ccccc3nc1-2,> 100 µM (inactive),> 100 µM (inactive),,> 100 µM (inactive),> 100 µM (inactive),> 100 µM (inactive),,> 100 µM (inactive),> 100 µM (inactive),> 100 µM (inactive),> 100 µM (inactive),> 100 µM (inactive),> 100 µM (inactive),,> 100 µM (inactive),> 100 µM (inactive),> 100 µM (inactive),> 100 µM (inactive),
NC(=O)CCC(NC(=O)Cc1ccccc1)C(=O)O.NC(CCC(=O)NC(=O)Cc1ccccc1)C(=O)O (centres undefined),> 8130 µM (inactive),> 8130 µM (inactive),,> 8130 µM (inactive),> 8130 µM (inactive),> 8130 µM (inactive),,> 8130 µM (inactive),> 8130 µM (inactive),,> 8130 µM (inactive),> 8130 µM (inactive),,> 8130 µM (inactive),> 8130 µM (inactive),> 8130 µM (inactive),> 8130 µM (inactive),> 8130 µM (inactive),> 8130 µM (inactive)
Cc1cc2nn(C3CCCO3)nc2cc1C (centres undefined),> 100 µM (inactive),> 100 µM (inactive),,> 100 µM (inactive),> 100 µM (inactive),> 100 µM (inactive),> 100 µM (inactive),,,,> 100 µM (inactive),> 100 µM (inactive),> 100 µM (inactive),> 100 µM (inactive),,> 100 µM (inactive),> 100 µM (inactive),> 100 µM (inactive),
O=Cc1cn(S(=O)(=O)c2ccccc2)c2ccccc12,> 100 µM (inactive),31.3 µM (inactive),20.6 µM (inactive),55.5 µM (inactive),55.5 µM (inactive),,,20.8 µM (inactive),35.5 µM (inactive),> 100 µM (inactive),> 100 µM (inactive),33.5 µM (inactive),> 100 µM (inactive),95.5 µM (inactive),32.4 µM (inactive),> 100 µM (inactive),> 100 µM (inactive),23.3 µM (inactive),

# — ChEMBL document CHEMBL1201862, “PubChem BioAssay data set” (2004)
